From PMC12622015 (bioRxiv, 2025)

Target: T1, IRAK4 (Homo sapiens, UniProt Q9NWZ3)
T1 sequence (Q9NWZ3 1-460): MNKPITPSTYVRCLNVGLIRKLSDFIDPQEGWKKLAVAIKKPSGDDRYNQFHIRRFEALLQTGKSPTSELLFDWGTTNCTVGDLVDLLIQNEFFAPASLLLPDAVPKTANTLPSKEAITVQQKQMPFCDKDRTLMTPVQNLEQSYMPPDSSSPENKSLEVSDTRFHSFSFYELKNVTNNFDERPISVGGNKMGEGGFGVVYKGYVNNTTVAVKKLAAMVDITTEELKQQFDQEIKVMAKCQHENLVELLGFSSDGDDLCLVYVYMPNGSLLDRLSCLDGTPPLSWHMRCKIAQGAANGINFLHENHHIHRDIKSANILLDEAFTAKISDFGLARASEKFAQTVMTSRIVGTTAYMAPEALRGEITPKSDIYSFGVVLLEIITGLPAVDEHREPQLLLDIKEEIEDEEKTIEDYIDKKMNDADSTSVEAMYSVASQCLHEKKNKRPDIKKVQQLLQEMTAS
Experiment: HotSpot kinase assay
Format: biochemical

COc1cc(N2CCN(C(=O)CCCC(=O)Nc3cccc4c3CN(C3CCC(=O)NC3=O)C4=O)CC2)ccc1NC(=O)c1cccc(-c2cc[nH]n2)n1 (stereo not shown) [PSP-0119, N-(4-(4-(5-((2-(2,6-dioxopiperidin-3-yl)-1-oxoisoindolin-4-yl)amino) −5-oxopentanoyl)piperazin-1-yl)-2-methoxyphenyl)-6-(1H-pyrazol-3-yl)picolinamide]
IC50: 2.83 nM
